Here are results for 33 compounds from PubChem BioAssay (NCI).

Values joined by “and” are separate entries in the source; they are usually repeats but may differ in a detail not shown here. Equal values may be shown once.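 Step 1: Grow cells in 96-well plates. Step 2: Expose to compound for 48 hours at 5 concentrations. Step 3: Interpolate endpoints linearly; if unreached, use highest concentration. GI50 = concentration required for 50% inhibition of growth. TGI: total growth inhibition.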 A value given as a limit tells only on which side of the number the result lay.

The assay has as its system MDA-MB-468 breast. Description: NCI-60 cell line screen, 48 h.

For `CN[C@@H](C)C(=O)N[C@H](C(=O)N1CCC[C@H]1c1nc(C(=O)c2ccc(F)cc2)cs1)C1CCCCC1`, the GI50 is 0.591 µM and the TGI came to 20.3 µM.

On to `COc1ccc(Cn2cc3c(c2-c2ccccc2)CCc2cnoc2-3)cc1`, for which the GI50 was 0.0795 µM and the TGI is more than 100 µM.

On to `Cc1cc(NC(=O)NCCOc2ccc(N3C(N)=NC(N)=NC3(C)C)cc2Cl)ccc1S(=O)(=O)F`, for which the GI50 is 1.46 µM and the TGI was 27.6 µM.

For `O=C(CCN1CCCC1)Nc1ccc2c(Nc3ccc(F)cc3)c3ccccc3nc2c1`, the GI50 was 1.26 µM and the TGI stood at 2.8 µM.

Consider `CCN(Cc1ccc(Cl)c(Cl)c1)c1ccc2nc(N)nc(N)c2c1C`, for which the GI50 was 0.0138 µM and the TGI stood at 1.3 µM.

As to `Nc1[nH]nc(Nc2ccccc2)c1-c1nc2ccccc2s1`, the GI50 is 2.23 µM and the TGI was 5.98 µM.

`CCCC(=O)Oc1ccc(/C(=C(\C)c2ccc(Cl)cc2)c2ccc(OCCN(CC)CC)cc2)cc1`: the GI50 is 1.53 µM and the TGI worked out at 3.67 µM.

In the case of `COC(=O)CNC(=O)C(=O)c1c(O)c(O)c(C(C)C)c2cc(C)c(-c3c(C)cc4c(C(C)C)c(O)c(O)c(C(=O)C(=O)NCC(=O)OC)c4c3O)c(O)c12`, the GI50 was 1.46 µM and the TGI was found to be 4.8 µM.

With `O=C(CSSCC(=O)c1ccc(Cl)cc1)c1ccc(Cl)cc1`, the GI50 is 2.26 µM and the TGI was 5.98 µM.

In the case of `O=[N+]([O-])c1ccc(Sc2cccc[n+]2[O-])c2nonc12`, the GI50 is 5.78 µM and the TGI came out at 20.7 µM.

Take `Nc1c(C(=O)c2cccc(-c3cccnc3)c2)cnn1-c1ccc(F)cc1`: the GI50 was more than 25 µM and the TGI was more than 25 µM.

As to `O=[N+]([O-])c1ccccc1/C=N\NC(=S)N/N=C/c1ccccc1[N+](=O)[O-]`, the GI50 is 1.4 µM and the TGI is 21.3 µM.

On to `COc1ccc(/C=C\c2cc(OC)c(OC)c(OC)c2)cc1NC(=O)/C=C/c1ccc(OC)c(OC)c1`, for which the GI50 is 1.9 µM and the TGI was more than 100 µM.

`CNC(=O)c1c(NC(=O)c2ccccc2C(F)(F)F)sc2c1CCC(=O)C2`: the GI50 was 1.81 µM and the TGI came out at 5.36 µM.

Regarding `Cc1cccc(CNc2c3ccccc3nc3ccccc23)c1`, the GI50 was 1.58 µM and the TGI worked out at 3.63 µM.

With `CN(C)S(=O)(=O)c1cccc(C(=O)Nc2nc(-c3ccc(F)c(F)c3)cs2)c1`, the GI50 is 3.79 µM and the TGI was found to be 97.5 µM.

As for `NC(CSC(c1ccccc1)(c1ccccc1)c1ccccc1)C(=O)O` (stereo not given), the GI50 was 0.406 µM and the TGI amounted to 6.24 µM.

Regarding `CCN1C(=O)N(CC)C2C1NN=c1s/c(=C3\C(=O)Nc4ccccc43)c(=O)n12` (stereo not given), the GI50 is 0.297 µM and the TGI was found to be 2.82 µM.

Consider `CN1CCN(C2=C(Cl)C(=O)c3ccccc3C2=O)CC1`, for which the GI50 is 1.11 µM and the TGI was found to be 2.61 µM.

For `CCc1nc(N)nc(N)c1C#CC(C)c1ccc(-c2ccncc2)cc1Cl` (stereo not given), the TGI was 1.57 µM and 6.46 µM.

As to `COc1ccc(-c2nc(NC(=O)CS(=O)(=O)c3ccc(F)cc3)sc2C)cc1`, the GI50 is 7.05 µM and the TGI stood at 53.8 µM.

Turning to `Cc1cccc(N2CCN(C3=C(Cl)C(=O)c4ncccc4C3=O)CC2)c1`, the GI50 was 1.54 µM and the TGI is 3.08 µM.

As for `C[C@H]1C[C@@H](n2c(Nc3ccc(OC(F)(F)F)cc3)nc3cc(CCC(=O)O)ccc32)CC(C)(C)C1`, the GI50 was 15.7 µM and the TGI came to 38.6 µM.

With `CC(=O)CC[N+](C)(C)C`, the GI50 is 1.75 µM and the TGI turned out to be 4.39 µM.

Take `O=C(O)CCCN1C(=O)/C(=C/C(Cl)=C/c2ccccc2)SC1=S`: the GI50 is 1.18 µM and the TGI is 3.29 µM.

On to `COc1ccc(CCN2CCCn3c2nc2ccccc2c3=O)cc1`, for which the GI50 is 0.0392 µM and the TGI is 43.9 µM.

For `CN(C)Cc1ccc(NC(=O)c2cncc(C#Cc3cnc(N)c4ncccc34)c2)cc1C(F)(F)F`, the GI50 was 1.56 µM and the TGI stood at 3.21 µM.

Take `COc1ccc(-n2nc(C)c3c(Nc4ccc(NC(=O)Nc5cccc(C(F)(F)F)c5)cc4)ncnc32)cc1`: the GI50 is 2.02 µM and the TGI was 4.9 µM.

For `O=C(CSc1nc2ccccc2c(=O)n1-c1ccc(Cl)cc1)N/N=C/c1ccc(Oc2ccc(Cl)cc2)cc1`, the GI50 is 2.08 µM and the TGI was determined as 5.08 µM.

`Cc1ccc(S(=O)(=O)c2nc(-c3ccc(F)cc3)oc2S(C)(=O)=O)cc1`: the GI50 was 2.5 µM and the TGI is more than 19.8 µM.

On to `O=C1/C(=C/c2ccc(F)cc2)COc2ccc(O)c(O)c21`, for which the GI50 was 2.28 µM and the TGI was determined as 5.6 µM.

With `COc1cc2c(O[C@@H]3OC[C@H](OC(C)=O)[C@H](OC(C)=O)[C@H]3O)c3c(c(-c4ccc5c(c4)OCO5)c2cc1OC)C(=O)OC3`, the GI50 was 0.731 µM and the TGI is more than 10 µM.

As to `O=C1c2c(c3c4cc(F)ccc4oc3c3[nH]c4ccccc4c23)C(=O)N1O`, the GI50 is 2.14 µM and the TGI came to 7.93 µM.
